This experiment addresses PIK3CG (human) (UniProt P48736). The experiment in a line: Assessment of PIK3CG Kinase Activity.

PIK3CG (human), sequence (P48736 whole entry, looked up): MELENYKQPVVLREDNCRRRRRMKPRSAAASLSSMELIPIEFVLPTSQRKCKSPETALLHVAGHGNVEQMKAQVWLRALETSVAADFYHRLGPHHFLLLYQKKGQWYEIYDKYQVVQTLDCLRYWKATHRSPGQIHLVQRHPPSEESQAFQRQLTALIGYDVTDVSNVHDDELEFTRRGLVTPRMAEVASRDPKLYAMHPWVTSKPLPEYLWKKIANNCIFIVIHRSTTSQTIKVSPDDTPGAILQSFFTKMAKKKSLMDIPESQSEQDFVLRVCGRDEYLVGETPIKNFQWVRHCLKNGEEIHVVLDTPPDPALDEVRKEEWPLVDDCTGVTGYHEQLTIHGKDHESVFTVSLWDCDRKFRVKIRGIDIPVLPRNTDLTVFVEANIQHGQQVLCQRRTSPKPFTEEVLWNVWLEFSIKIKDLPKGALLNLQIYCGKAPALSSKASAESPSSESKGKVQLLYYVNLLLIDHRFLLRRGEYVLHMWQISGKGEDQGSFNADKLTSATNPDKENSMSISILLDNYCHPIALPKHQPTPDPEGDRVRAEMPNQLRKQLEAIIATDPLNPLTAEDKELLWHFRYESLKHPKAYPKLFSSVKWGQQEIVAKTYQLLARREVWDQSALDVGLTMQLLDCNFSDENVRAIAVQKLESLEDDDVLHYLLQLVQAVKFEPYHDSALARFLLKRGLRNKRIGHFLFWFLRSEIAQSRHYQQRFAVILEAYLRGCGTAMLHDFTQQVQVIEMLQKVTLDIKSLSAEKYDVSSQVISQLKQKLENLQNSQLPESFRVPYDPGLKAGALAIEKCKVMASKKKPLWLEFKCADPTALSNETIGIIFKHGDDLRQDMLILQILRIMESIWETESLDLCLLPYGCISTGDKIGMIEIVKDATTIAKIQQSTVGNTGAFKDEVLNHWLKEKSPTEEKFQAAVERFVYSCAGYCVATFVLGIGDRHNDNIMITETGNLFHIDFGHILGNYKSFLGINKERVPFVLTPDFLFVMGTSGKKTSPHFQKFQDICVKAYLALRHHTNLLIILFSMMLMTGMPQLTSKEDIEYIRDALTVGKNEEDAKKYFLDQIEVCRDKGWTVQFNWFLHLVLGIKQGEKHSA

Take `CCC(C(=O)Nc1cc(Nc2ncc3c(n2)N(C(C)C)CC(=O)N3C)cc(S(C)(=O)=O)c1)c1ccccc1` (stereo not drawn): the IC50 was under 800 nM.
For the molecule `CC(C)N1CC(=O)N(C)c2cnc(Nc3cc(N(C)C(=O)NCc4ccccc4)cc(S(C)(=O)=O)c3)nc21`, the IC50 was under 800 nM.
As to `CC(C)N1CC(=O)N(C)c2cnc(Nc3cc(NC(=O)N[C@H]4CC[C@@H](N(C)C)CC4)cc(S(C)(=O)=O)c3)nc21`, the IC50 is under 800 nM.
To `CC(C)N1CC(=O)N(C)c2cnc(Nc3cc(NC(=O)NC[C@@H]4CCCN4)cc(S(C)(=O)=O)c3)nc21` belongs under 800 nM.
To `CNC(=O)c1cc(Nc2ncc3c(n2)N(C(C)C)CC(=O)N3C)cc(S(C)(=O)=O)c1` belongs under 800 nM; to `CN1C(=O)CN(c2ccccc2)c2nc(Nc3cccc(S(=O)(=O)CCN4CCCCC4)c3)ncc21`, under 800 nM.
Molecule `CC(C)N1CC(=O)N(C)c2cnc(Nc3cc(CO)cc(S(C)(=O)=O)c3)nc21` had an IC50 of under 800 nM.
As for `CC(C)N1CC(=O)N(C)c2cnc(Nc3cc(NC(=O)NC[C@@H]4CCCN4C4CCCC4)cc(S(C)(=O)=O)c3)nc21`, the figure is under 800 nM.

By IC50 is commonly meant the concentration that inhibits the measured activity by half. A low value points to greater potency in that assay.

Values taken from the Kinase Knowledgebase extract (Sharma et al. 2016).
